In ChEMBL document CHEMBL5321216, “Discovery of bipyridine amide derivatives targeting pRXRα-PLK1 interaction for anticancer therapy” (Eur J Med Chem, 2023):
Activity calls are given as the source filed them. The calls are words filed in the database; no cut-off is given here.

What was measured:
[1] = system: MDA-MB-231; assay: Induction of apoptosis in human MDA-MB-231 cells assessed as late apoptotic cells at 250 nM incubated for 24 hrs by annexin V-FITC/PI staining based flow cytometry analysis (reference value: 5.93%); type: functional
[2] = Elimination half life in Sprague-Dawley rat at 25 mg/kg, ip measured for 48 hrs by LC-MS/MS analysis; type: ADME, organism-based; settings: in vivo, read-out: beta t1/2 (converted)
[3] = Toxicity in BALB/c mouse xenografted with human MDA-MB-231 cells assessed as liver damage at 25 mg/kg/day, ip administered for 15 days by H and E staining based analysis; type: organism-based; settings: in vivo, 360 h, time 15 day
[4] = system: A549; assay: Induction of cell cycle arrest in wild type human A549 cells assessed as accumulation of cells at G1 phase at 125 nM incubated for 12 hrs by DAPI staining based flow cytometry analysis (reference value: 36.89 %); type: functional
[5] = system: MDA-MB-231; assay: Induction of apoptosis in human MDA-MB-231 cells assessed as increase in cleaved PARP expression measured after 24 hrs by Western blot analysis; type: functional, cell-based; settings: dose 7.8-500 nM
[6] = system: MDA-MB-231; assay: Antitumor activity against human MDA-MB-231 cells xenografted in BALB/c nude mouse assessed as nuclear shrinkage in tumor at 25 mg/kg/day, ip administered for 15 days by immunohistochemical analysis; type: functional, organism-based; settings: time 15.0 day
[7] = system: A549; assay: Induction of apoptosis in human A549 cells assessed as dead cells at 250 nM incubated for 24 hrs by annexin V-FITC/PI staining based flow cytometry analysis (reference value: 0.75%); type: functional
[8] = target: T1, Retinoic acid receptor RXR-alpha (Homo sapiens) (UniProt P19793); assay: Antagonist activity at RXRalpha (unknown origin) transfected in human HeLa cells assessed as inhibition of CD3254- induced receptor transactivation by measuring remaining luciferase activity at 1 uM incubated for 24 hrs by dual luciferase reporter assay; type: cell-based; settings: filed as antagonist
T1 sequence (whole entry): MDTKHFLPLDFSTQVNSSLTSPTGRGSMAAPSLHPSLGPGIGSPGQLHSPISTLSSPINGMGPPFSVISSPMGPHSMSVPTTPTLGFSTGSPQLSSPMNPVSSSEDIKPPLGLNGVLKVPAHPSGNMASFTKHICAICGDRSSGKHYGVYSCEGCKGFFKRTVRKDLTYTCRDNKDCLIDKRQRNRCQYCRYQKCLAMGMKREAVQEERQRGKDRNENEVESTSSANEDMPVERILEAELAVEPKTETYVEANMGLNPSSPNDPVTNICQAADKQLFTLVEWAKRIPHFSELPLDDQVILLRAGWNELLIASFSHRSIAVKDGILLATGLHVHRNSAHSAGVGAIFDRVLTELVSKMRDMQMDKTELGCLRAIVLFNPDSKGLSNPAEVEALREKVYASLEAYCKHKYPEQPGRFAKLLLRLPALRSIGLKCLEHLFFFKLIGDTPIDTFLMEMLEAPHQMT

[9] = target: T1, Retinoic acid receptor RXR-alpha (Homo sapiens); assay: Antagonist activity at RXRalpha (unknown origin) transfected in human HeLa cells at 31.25 uM incubated for 24 hrs by dual luciferase reporter assay; type: cell-based; settings: filed as antagonist
[10] = system: MDA-MB-231; assay: Upregulation of phosphorylated RXRalpha protein level in human MDA-MB-231 cells at 125 to 500 nM incubated for 24 hrs in presence of thermosensitive alkaline phosphatase by Western blot analysis; type: functional, cell-based; settings: dose 125-500 nM
[11] = system: A549; assay: Induction of cell cycle arrest in human A549 cells assessed as accumulation of cells at G1 phase at 31.25 nM incubated for 12 hrs by flow cytometry analysis (reference value: 59.57%); type: functional
[12] = target: T2, Retinoic acid receptor RXR-gamma (Homo sapiens) (UniProt P48443); assay: Antagonist activity at RXRgamma (unknown origin) transfected in human HeLa cells at 31.25 uM incubated for 24 hrs by dual luciferase reporter assay; type: cell-based
T2 sequence (whole entry): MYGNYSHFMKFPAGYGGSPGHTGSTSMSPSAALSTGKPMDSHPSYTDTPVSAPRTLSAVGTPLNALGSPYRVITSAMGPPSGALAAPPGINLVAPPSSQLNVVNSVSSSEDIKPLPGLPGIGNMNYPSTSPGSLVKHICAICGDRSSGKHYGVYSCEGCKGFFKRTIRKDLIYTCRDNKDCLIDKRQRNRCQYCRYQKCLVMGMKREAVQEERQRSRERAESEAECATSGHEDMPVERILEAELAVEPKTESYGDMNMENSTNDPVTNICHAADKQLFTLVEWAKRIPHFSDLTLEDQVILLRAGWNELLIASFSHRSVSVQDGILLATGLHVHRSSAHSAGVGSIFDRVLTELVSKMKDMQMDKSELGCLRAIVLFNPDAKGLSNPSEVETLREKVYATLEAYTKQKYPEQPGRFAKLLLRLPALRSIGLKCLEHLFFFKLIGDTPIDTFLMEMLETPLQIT

[13] = system: MDA-MB-231; assay: Induction of cell cycle arrest in human MDA-MB-231 cells assessed as accumulation of cells at G2 phase at 62.5 nM incubated for 12 hrs by flow cytometry analysis (reference value: 15.91%); type: functional
[14] = system: MDA-MB-231; assay: Induction of RXRalpha-mediated mitotic arrest in human MDA-MB-231 cells assessed as accumulation of pRXRalpha protein at 7.8 to 500 nM measured after 24 hrs by Western blot analysis; type: functional, cell-based; settings: dose 7.8-500 nM
[15] = system: MDA-MB-231; assay: Induction of apoptosis in human MDA-MB-231 cells assessed as live cells at 62.5 nM incubated for 24 hrs by annexin V-FITC/PI staining based flow cytometry analysis (reference value: 91.3%); type: functional
[16] = system: HepG2; assay: Antiproliferative activity against human HepG2 cells assessed as inhibition of cell proliferation incubated for 72 hrs by MTT assay; type: functional, cell-based; settings: HepG2, 72 h
[17] = system: HCC1937; assay: Antiproliferative activity against human HCC1937 cells assessed as inhibition of cell proliferation incubated for 72 hrs by MTT assay; type: functional, cell-based; settings: HCC1937, 72 h
[18] = Apparent clearance during terminal phase in Sprague-Dawley rat at 25 mg/kg, ip measured for 48 hrs by LC-MS/MS analysis; type: ADME, organism-based; settings: in vivo, read-out: CLz/F (converted)
[19] = system: MDA-MB-231; assay: Antitumor activity against human MDA-MB-231 cells xenografted in BALB/c nude mouse assessed as inhibition of tumor growth by measuring mitotic arrest at 12.5 to 25 mg/kg/day, ip administered for 15 days; type: functional, organism-based; settings: dose 12.5-25 mg/kg/day, time 15.0 day
[20] = Selectivity index, ratio of IC50 for human A549 cells to IC50 for human MDA-MB-231 cells; type: functional
[21] = Drug absorption in KM mouse at 25 mg/kg, po measured after 0.5 to 2 hrs; type: ADME, organism-based; settings: in vivo, time 0.5-2 hrs
[22] = system: MDA-MB-231; assay: Inhibition of colony formation in human MDA-MB-231 cells at 62.5 nM incubated for 48 hrs followed by replacement with normal culture medium and measured after […] by crystal violet staining based assay relative to control; type: functional
[23] = system: MDA-MB-231; assay: Induction of cell cycle arrest in human MDA-MB-231 cells assessed as accumulation of cells at S phase at 62.5 nM incubated for 12 hrs by flow cytometry analysis (reference value: 40.89%); type: functional

In the case of `O=C(/C=C/c1ccccc1)Nc1cc(-c2ccnc(N3CCC(CO)CC3)c2)ccn1`, the Activity [1] is reported as 20.2%, the half-life [2] is reported as 2.23 h and the Activity [3] is reported as “Non-Toxic”. For the same molecule, the Activity [4] was 2.24%, the Activity [5] was “Dose-Dependent Effect” and the Activity [6] was “Active”. The Activity [7] was 2.36%, the inhibition [8] was “Active” and the Activity [9] was “Active”. The Activity [10] was “inactive”, the Activity [11] was 58.84% and the Activity [12] was “inactive”. For the same molecule, the Activity [13] was 81.68%, the Activity [14] was “Active” and the Activity [15] was 69.2%. For the same molecule, the IC50 [16] was 128 nM, the IC50 [17] was 561 nM and the CL/F [18] was 25.8 mL/min/kg. The Activity [19] was “Active”, the “Ratio IC50” value [20] was 12.56 and the Drug absorption [21] was “Not Active”. For the same molecule, the inhibition at 0.0625 µM [22] was 100% and the Activity [23] was 16.51%.
